The numbers were not newly measured in patent publication US20030232417A1, “Process” (priority 2001, published 2003), which cites them from elsewhere.

The test system of the data set is fungi. The note with it: limited number of fungi tested.

Turning to `O=C1C=CCOC1(O)CO` (stereo not shown) [microthecin, 2-hydroxy-2-(hydroxymethyl)-2H-pyran-3(6H)-one], the antifungal activity entry is listed as “antifungal against a limited number of fungi tested”.
